Values of other authors in US20110246079A1, “INDIVIDUAL 5-FLUOROURACILE DOSE OPTIMIZATION IN FOLFOX TREATMENT” (Centre Regional De Lutte Contre, priority 2008, published 2011).

Assays:
patients = details: 5-FU treatment
[1] = biological target: T1, dihydropyrimidine dehydrogenase (DPD) (Homo sapiens, UniProt Q12882); details: subject with normal DPD enzymatic activity
T1 construct: This ubiquitous enzyme is a major factor of 5-FU biodisponibility, since in a subject with normal DPD enzymatic activity; endogenous in cells; host or cells: Subject or patient in vivo (enzyme described as ubiquitous)
T1 sequence (Q12882 4-1025): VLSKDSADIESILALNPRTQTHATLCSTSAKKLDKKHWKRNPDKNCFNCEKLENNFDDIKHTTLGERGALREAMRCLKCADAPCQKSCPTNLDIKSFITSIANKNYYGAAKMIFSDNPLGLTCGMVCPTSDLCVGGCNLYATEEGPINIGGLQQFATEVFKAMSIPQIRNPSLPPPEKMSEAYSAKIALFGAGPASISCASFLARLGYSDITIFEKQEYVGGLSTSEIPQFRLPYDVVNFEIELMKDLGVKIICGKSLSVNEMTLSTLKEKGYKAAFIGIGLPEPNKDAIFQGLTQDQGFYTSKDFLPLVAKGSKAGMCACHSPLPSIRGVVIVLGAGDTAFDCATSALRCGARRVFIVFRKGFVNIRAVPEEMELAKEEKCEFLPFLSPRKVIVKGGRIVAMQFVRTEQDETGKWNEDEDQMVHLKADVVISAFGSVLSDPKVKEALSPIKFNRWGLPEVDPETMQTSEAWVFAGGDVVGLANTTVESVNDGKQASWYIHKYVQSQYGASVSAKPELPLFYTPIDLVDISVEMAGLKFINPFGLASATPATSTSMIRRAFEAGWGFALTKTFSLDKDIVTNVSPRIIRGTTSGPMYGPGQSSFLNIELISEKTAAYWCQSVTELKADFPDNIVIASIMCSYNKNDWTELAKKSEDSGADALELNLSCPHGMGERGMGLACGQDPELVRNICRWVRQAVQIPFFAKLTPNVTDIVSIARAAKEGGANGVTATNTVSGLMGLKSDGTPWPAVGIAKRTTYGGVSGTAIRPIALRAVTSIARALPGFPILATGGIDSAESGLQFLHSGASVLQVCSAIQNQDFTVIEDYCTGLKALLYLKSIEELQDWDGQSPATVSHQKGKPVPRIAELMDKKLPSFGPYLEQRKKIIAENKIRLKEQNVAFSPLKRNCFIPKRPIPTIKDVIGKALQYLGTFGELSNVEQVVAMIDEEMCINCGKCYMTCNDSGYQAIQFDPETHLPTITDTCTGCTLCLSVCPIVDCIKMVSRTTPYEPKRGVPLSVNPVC

5-FU metabolism = details: in vivo

Compound | death, treated patients (patients) | very early polyvisceral toxicity, patients (patients) | severe grade 3-4 toxicity (patients; standard doses) | administered 5-FU available for / metabolized by the anabolic pathway [1] | time for 5-FU plasmatic levels to reach a plateau (after the beginning of the 5-FU continuous infusion) | half-life in blood (in vivo) | effect on 5-FU metabolism (5-FU metabolism)
O=c1[nH]cc(F)c(=O)[nH]1 [5-FU, 5-fluorouracile] | 0.8% | 5-8% | 20-25% | 20% | about 1 hour | very short | –
O=C1[O][Pt]2([NH][C@@H]3CCCC[C@H]3[NH]2)[O]C1=O [oxaliplatin] | – | – | – | – | – | – | inhibits 5-FU metabolism
